Source: patent US12240857B2 (priority 2017, dated 2025)
Where “and” joins values, the source holds several entries; their conditions need not be identical. Equal entries are not always repeated. Where two headings read alike, the source gives them in different places.

Tests used:
[1] = tested on: EBOV mucin-domain-deleted glycoprotein pseudotyped VSV; assay: microbe, parasite or virus in culture; assay type: cell-based, Zaire ebolavirus; conditions: Zaire ebolavirus, Vero
[2] = tested on: BDBV mucin-domain-deleted glycoprotein pseudotyped VSV; assay: microbe, parasite or virus in culture; assay type: cell-based, Bundibugyo ebolavirus; conditions: Vesicular stomatitis virus, Vero
[3] = tested on: parent VSV virus expressing the native VSV glycoprotein; assay: microbe, parasite or virus in culture; assay type: cell-based; conditions: Vesicular stomatitis virus, Vero, read-out: EC50 Pseudotype Assays VSV
[4] = tested on: full-length Ebola Zaire GP pseudotyped VSV (EBOV_FL); assay: microbe, parasite or virus in culture; assay type: cell-based; conditions: Zaire ebolavirus, read-out: EC50 Pseudotype Assays EBOV_FL
[5] = tested on: full-length SUDV GP pseudotyped VSV; assay: microbe, parasite or virus in culture; assay type: cell-based, Sudan ebolavirus; conditions: Vesicular stomatitis virus, read-out: EC50 Pseudotype Assays SUDV
[6] = tested on: full-length Marburgvirus (MARV) GP pseudotyped VSV; assay: microbe, parasite or virus in culture; assay type: cell-based, Marburg marburgvirus; conditions: for EC50: Orthomarburgvirus, read-out: EC50 Pseudotype Assays MARV
[7] = tested on: full-length LASV glycoprotein pseudotyped VSV; assay: microbe, parasite or virus in culture; assay type: cell-based, Lassa virus; conditions: Vesicular stomatitis virus, read-out: EC50 Pseudotype Assays LASV
wild-type Ebola Zaire [8] = tested on: wild-type Ebola Zaire
wild-type Sudan Gulu [9] = tested on: wild-type Sudan Gulu
in vitro [10] = conditions: African green monkey
wild-type Ebola Zaire [11] = assay: microbe, parasite or virus in culture; conditions: Zaire ebolavirus, HeLa, read-out: Ebola Zaire EC50
wild-type Sudan Gulu [12] = assay: microbe, parasite or virus in culture; conditions: Sudan ebolavirus, HeLa, read-out: Sudan Gulu EC50
EBOV (Mayinga) [13] = assay: microbe, parasite or virus in culture; assay type: cell-based, Zaire ebolavirus; conditions: for EC50: Zaire ebolavirus, Vero
EBOV (Mayinga) [14] = assay: microbe, parasite or virus in culture; assay type: cell-based, Zaire ebolavirus; conditions: for EC90: Zaire ebolavirus
in vitro [15] = conditions: human, microsomes
in vitro [16] = conditions: mouse, microsomes
in vitro [17] = conditions: monkey, microsomes
native EBOV virus = conditions: read-out: published EC50 against native EBOV virus; cited from earlier work
Ebola virus infection = conditions: human, in vivo; cited from earlier work
[18] = human, in vivo; cited from earlier work
P-gp = P-gp (Homo sapiens, UniProt P08183)
P-gp, sequence (P08183 whole entry): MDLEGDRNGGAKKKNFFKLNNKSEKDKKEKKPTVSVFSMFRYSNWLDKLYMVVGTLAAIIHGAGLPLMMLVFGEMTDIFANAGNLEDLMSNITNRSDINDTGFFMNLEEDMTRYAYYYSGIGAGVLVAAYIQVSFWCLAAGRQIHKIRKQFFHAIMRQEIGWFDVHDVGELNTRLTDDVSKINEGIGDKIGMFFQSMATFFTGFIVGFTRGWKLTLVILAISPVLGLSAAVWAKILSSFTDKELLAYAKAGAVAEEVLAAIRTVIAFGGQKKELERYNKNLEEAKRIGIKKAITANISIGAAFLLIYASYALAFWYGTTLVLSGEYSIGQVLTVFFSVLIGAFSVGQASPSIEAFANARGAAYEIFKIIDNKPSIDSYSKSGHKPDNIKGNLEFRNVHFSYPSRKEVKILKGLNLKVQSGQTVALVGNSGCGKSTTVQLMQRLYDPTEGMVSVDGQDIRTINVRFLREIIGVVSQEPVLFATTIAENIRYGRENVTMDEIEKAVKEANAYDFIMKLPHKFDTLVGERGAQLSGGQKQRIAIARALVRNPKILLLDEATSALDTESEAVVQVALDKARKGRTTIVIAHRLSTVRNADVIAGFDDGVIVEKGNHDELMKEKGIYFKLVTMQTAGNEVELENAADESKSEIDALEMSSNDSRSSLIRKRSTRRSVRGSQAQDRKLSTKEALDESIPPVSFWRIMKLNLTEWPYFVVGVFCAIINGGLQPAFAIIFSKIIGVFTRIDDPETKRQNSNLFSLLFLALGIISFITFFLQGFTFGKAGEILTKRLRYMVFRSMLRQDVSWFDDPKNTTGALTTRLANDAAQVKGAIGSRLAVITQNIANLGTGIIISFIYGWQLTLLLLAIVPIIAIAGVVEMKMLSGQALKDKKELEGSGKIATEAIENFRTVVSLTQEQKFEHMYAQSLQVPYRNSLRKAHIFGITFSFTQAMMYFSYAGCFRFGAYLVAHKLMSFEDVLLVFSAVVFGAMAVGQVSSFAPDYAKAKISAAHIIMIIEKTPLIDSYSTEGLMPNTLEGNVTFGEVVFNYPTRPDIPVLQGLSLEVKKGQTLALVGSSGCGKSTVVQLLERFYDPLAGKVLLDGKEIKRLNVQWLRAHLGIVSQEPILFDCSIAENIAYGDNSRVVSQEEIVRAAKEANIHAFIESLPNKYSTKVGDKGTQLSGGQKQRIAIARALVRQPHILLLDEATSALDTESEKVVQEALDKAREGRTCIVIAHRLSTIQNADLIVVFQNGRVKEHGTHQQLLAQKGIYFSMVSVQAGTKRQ

[19] = tested on: human Cyp-p450 enzymes 1A2, 2B6, 2C9, 2C19, 2D6
[20] = in vivo
in vivo = conditions: male, CD-1, mouse
physchem = conditions: pH 7, aqueous buffer, kinetic from dmso stock
in vitro [21] = conditions: human, Caco-2
in vitro [22] = conditions: human
in vitro [23] = conditions: mouse
[24] = tested on: CYP1A2, CYP2B6, CYP2C9, CYP2C19, CYP2D6; assay: in vitro; conditions: human
human Cyp-p450 3A4 = human Cyp-p450 3A4 (Homo sapiens, UniProt P08684); assay: biochemical
human Cyp-p450 3A4, sequence (P08684 whole entry): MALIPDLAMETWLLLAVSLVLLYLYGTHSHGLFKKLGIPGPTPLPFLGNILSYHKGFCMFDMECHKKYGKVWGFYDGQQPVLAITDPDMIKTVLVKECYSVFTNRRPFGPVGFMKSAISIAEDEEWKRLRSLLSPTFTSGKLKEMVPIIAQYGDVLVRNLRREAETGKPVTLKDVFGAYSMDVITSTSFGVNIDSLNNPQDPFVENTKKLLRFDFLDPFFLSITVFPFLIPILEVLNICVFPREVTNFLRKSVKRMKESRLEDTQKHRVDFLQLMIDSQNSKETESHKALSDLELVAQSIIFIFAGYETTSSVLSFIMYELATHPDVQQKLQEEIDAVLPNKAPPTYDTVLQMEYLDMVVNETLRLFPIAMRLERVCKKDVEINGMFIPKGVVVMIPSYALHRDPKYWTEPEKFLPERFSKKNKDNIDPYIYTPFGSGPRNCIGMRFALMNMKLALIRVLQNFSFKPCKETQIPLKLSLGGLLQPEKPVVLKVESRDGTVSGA

hERG ion channel = hERG ion channel (Homo sapiens, UniProt Q12809); assay: biochemical
hERG ion channel, sequence (Q12809 whole entry): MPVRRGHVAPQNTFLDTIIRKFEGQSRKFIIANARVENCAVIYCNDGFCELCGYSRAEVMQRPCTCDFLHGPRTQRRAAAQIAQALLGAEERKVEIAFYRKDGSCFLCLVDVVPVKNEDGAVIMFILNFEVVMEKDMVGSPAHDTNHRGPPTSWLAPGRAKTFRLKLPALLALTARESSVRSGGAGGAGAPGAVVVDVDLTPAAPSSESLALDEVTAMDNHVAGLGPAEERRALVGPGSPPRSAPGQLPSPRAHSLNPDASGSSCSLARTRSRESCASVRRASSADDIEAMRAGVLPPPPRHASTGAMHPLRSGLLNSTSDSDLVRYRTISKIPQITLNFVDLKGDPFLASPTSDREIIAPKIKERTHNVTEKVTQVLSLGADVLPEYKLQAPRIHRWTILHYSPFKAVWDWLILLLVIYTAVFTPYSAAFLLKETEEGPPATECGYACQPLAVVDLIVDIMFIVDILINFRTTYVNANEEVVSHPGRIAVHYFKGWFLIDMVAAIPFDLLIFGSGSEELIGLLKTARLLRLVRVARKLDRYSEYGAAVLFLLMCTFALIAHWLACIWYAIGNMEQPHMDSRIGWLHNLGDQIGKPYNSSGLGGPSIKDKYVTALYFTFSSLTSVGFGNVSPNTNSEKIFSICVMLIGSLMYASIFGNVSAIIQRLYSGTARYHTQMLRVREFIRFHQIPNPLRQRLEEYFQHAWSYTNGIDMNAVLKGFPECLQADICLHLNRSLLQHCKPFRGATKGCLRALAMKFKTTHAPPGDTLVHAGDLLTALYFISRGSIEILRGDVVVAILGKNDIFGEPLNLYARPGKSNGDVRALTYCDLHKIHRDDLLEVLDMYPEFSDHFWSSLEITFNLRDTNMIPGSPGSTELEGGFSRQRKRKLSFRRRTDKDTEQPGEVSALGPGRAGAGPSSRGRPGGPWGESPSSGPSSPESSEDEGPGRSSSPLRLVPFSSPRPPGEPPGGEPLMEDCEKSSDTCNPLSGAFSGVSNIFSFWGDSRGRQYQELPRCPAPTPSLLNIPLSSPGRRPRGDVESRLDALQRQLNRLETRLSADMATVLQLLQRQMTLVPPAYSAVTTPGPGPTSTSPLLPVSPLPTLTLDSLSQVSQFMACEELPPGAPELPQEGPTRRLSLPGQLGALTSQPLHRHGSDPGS

[25] = read-out: EC50 Pseudotype Assays EBOV
[26] = read-out: EC50 Pseudotype Assays BDBV

CC1CCN(CC(O)COc2ccc(C34CC5CC(CC(C5)C3)C4)cc2)CC1 (centres unmarked) [Example D21, 1-[4-(adamantan-1-yl)phenoxy]-3-(4-methylpiperidin-1-yl)propan-2-ol]
EC50 ([1]; 24 h, read-out: EC50 EBOV): 50 nM | EC50 [1, 25]: 50 nM | EC50 ([2]; 24 h, read-out: EC50 BDBV): 110 nM | EC50 [2, 26]: 110 nM | EC50 [3]: 3700 nM | EC50 [4]: 110 nM | EC50 [5]: 410 nM | MARV pseudotyped virus EC50 concentration (in words) [6]: sub-micromolar | EC50 [6]: 360 nM | EC50 [7]: 3000 nM | Ebola Zaire SI (CC50/EC50) (wild-type Ebola Zaire [8]): 48.1 | Sudan Gulu SI (CC50/EC50) (wild-type Sudan Gulu [9]): 38.2 | CC50 (in vitro [10]; CC50): 1100 nM | CC50 (in vitro [10]; Cytotox CC50): 3700 nM | EC50 (wild-type Ebola Zaire [11]): 150 nM | EC50 (wild-type Sudan Gulu [12]): 190 nM

CCC12CC3CC(C(=O)NC4CCNCC4)(C1)CC(c1ccccc1)(C3)C2 (centres unmarked) [Example A80]
EC50 ([1]; read-out: EC50 EBOV): 10 nM | EC50 [1, 25]: 20 nM | EC50 ([2]; read-out: EC50 BDBV): 50 nM | EC50 [2, 26]: 60 nM | EC50 [3]: > 10000 nM | EC50 [4]: 40 nM | EC50 [5]: 400 nM | EC50 [6]: 1100 nM | EC50 [7]: > 10000 nM | SI50 (CC50/EC50) (EBOV (Mayinga) [13]): 95.6 | EC50 (EBOV (Mayinga) [13]): 890 nM | SI90 (CC50/EC90) (EBOV (Mayinga) [14]): 9.6 | EC90 (EBOV (Mayinga) [14]): 8900 nM | Ebola Zaire SI (CC50/EC50) (wild-type Ebola Zaire [8]): 137 | Sudan Gulu SI (CC50/EC50) (wild-type Sudan Gulu [9]): 130 | CC50 (in vitro [10]; CC50): 10000 nM | CC50 (in vitro [10]; Cytotox CC50): > 10000 nM | half-life (in vitro [15]): 1.72 h | half-life (in vitro [16]): > 2 h | half-life (in vitro [17]): 1.48 h | EC50 (wild-type Ebola Zaire [11]): 130 nM | EC50 (wild-type Sudan Gulu [12]): 140 nM

OCCN1CCN(CC(O)COc2ccc(C34CC5CC(CC(C5)C3)C4)cc2)CC1 (centres unmarked) [Example D24, 1[4-(adamantan-1-yl)phenoxy]-3[4-(2-hydroxyethyl)piperazin-1-yl]propan-2-ol]
EC50 ([1]; 24 h, read-out: EC50 EBOV): 80 nM | EC50 [1, 25]: 90 nM | EC50 ([2]; 24 h, read-out: EC50 BDBV): 270 nM | EC50 [2, 26]: 270 nM | EC50 [3]: > 10000 nM | EC50 [4]: 80 nM | EC50 [5]: 2430 nM | EC50 [6]: > 10000 nM | EC50 [7]: > 10000 nM | Ebola Zaire SI (CC50/EC50) (wild-type Ebola Zaire [8]): 45.6 | Sudan Gulu SI (CC50/EC50) (wild-type Sudan Gulu [9]): 78.7 | CC50 (in vitro [10]; CC50): 4300 nM | CC50 (in vitro [10]; Cytotox CC50): > 10000 nM | EC50 (wild-type Ebola Zaire [11]): 440 nM | EC50 (wild-type Sudan Gulu [12]): 260 nM

NC(=O)c1nc(F)c[nH]c1=O [favipiravir]
SI90 (CC50/EC90) (EBOV (Mayinga) [14]): 3 | EC90 (EBOV (Mayinga) [14]): 333000 nM | EC50 (native EBOV virus): 67000 nM | drop in viral load (Ebola virus infection): 3-4 log | half-life in humans [18]: 1 to 4 h

CC12CC3CC(C(=O)N[C@H]4CC[C@H](N)CC4)(C1)CC(c1ccccc1)(C3)C2.Cl (some centres unmarked) [Example A78]
EC50 ([1]; read-out: EC50 EBOV): 20 nM | EC50 [1, 25]: 20 nM | EC50 ([2]; read-out: EC50 BDBV): 90 nM | EC50 [2, 26]: 90 nM | EC50 [3]: > 10000 nM | EC50 [4]: 50 nM | EC50 [5]: 210 nM | EC50 [6]: 3500 nM | EC50 [7]: > 10000 nM | SI50 (CC50/EC50) (EBOV (Mayinga) [13]): 41.5 | EC50 (EBOV (Mayinga) [13]): 1100 nM | SI90 (CC50/EC90) (EBOV (Mayinga) [14]): 8.2 | EC90 (EBOV (Mayinga) [14]): 5600 nM | Ebola Zaire SI (CC50/EC50) (wild-type Ebola Zaire [8]): 268.2 | Sudan Gulu SI (CC50/EC50) (wild-type Sudan Gulu [9]): 264.3 | P-gp substrate ID Caco-2 Permeability (+Verapamil) Paap Mean A > B (P-gp): 8.47 10^−6 cm s^−1 | P-gp substrate ID Caco-2 Permeability (+Verapamil) Paap Mean B > A (P-gp): 7.45 10^−6 cm s^−1 | Cyp-p450 inhibition IC50, 1A2, 2B6, 2C9, 2C19 [19]: not an inhibitor | F ([20]; male, CD-1, mouse): 72% | CI ([20]; male, CD-1, mouse, iv, 1 mg/kg): 29.72 mL/min/kg | clearance ([20]; mouse): less than hepatic blood flow | Vd (in vivo): 14 L/kg | half-life (in vivo): 7.1 h | half-life (in vivo; 10 mg/kg): 7 h | AUC(0-inf) (in vivo; iv, 1 mg/kg): 561 ng·h/mL | AUC(0-t) (in vivo; iv, 1 mg/kg): 539 ± 23 ng·h/mL | Cmax (in vivo; iv, 1 mg/kg): 129 ± 40 ng/mL | Tmax (in vivo; iv, 1 mg/kg): 0.083 h | Vd (in vivo; iv, 1 mg/kg): 13.9 L/kg | half-life (in vivo; iv, 1 mg/kg): 5.4 h | AUC(0-inf) (in vivo; po, 10 mg/kg): 4040 ng·h/mL | AUC(0-t) (in vivo; po, 10 mg/kg): 3590 ± 576 ng·h/mL | Cmax (in vivo; po, 10 mg/kg): 239 ± 46 ng/mL | Tmax (in vivo; po, 10 mg/kg): 6 h | bioavailability (in vivo; po, 10 mg/kg): 72% | half-life (in vivo; po, 10 mg/kg): 7.1 h | CC50 (in vitro [10]; Cytotox CC50): > 10000 nM | half-life (in vitro [15]): 7.7 h | half-life (in vitro [16]): 4.45 h | half-life (in vitro [17]): > 2 h | solubility (physchem): > 500 µM | Papp A→B (in vitro [21]): 3.61 ×10⁻⁶ cm/s | Papp B→A (in vitro [21]): 15.6 ×10⁻⁶ cm/s | efflux ratio (in vitro [21]): 4.32 | fraction unbound (in vitro [22]): 0.025 | fraction unbound (in vitro [23]): 0.014 | IC50 [24]: ≥ 90000 nM | IC50 (human Cyp-p450 3A4; Cyp-p450 inhibition IC50, 3A4 (Midazolam)): > 100000 nM | IC50 (human Cyp-p450 3A4; Cyp-p450 inhibition IC50, 3A4 (Testosterone)): ~28000 nM and 28000 nM | IC50 (hERG ion channel): > 10000 nM | EC50 (wild-type Ebola Zaire [11]): 210 nM | EC50 (wild-type Sudan Gulu [12]): 210 nM
